This passage reports IC50 results from ChEMBL document CHEMBL2321673, “Critical role of a methyl group on the γ-lactone ring of annonaceous acetogenins in the potent inhibition of mitochondrial complex I” (Bioorg Med Chem Lett, 2013).

The assay addresses NADH-ubiquinone oxidoreductase chain 1 (Bos taurus, UniProt P03887). The assay is described as follows: Inhibition of bovine heart mitochondrial complex 1.

Sequence of NADH-ubiquinone oxidoreductase chain 1 (P03887 whole entry): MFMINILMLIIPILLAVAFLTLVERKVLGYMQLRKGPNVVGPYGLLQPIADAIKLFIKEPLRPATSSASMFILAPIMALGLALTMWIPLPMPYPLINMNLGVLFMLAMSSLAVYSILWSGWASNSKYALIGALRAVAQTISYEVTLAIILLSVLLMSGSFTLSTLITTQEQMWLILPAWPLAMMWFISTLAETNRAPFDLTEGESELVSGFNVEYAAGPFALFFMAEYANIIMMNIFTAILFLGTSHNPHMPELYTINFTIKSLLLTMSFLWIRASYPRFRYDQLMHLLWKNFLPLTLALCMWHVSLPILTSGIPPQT

The term IC50 denotes the concentration at which inhibition is half-maximal. In turn, `CCCCCCCCCCCC[C@@H](O)[C@H]1CC[C@H]([C@H](O)CCCCCCCCCCCCC2=C[C@H](C(F)(F)F)OC2=O)O1` registered an IC50 of 310 nM.

Turning to `CCCCCCCCCCCC[C@@H](O)[C@H]1CC[C@H]([C@H](O)CCCCCCCCCCCCC2=C[C@H](C)OC2=O)O1` [REL-SOLAMIN], the IC50 worked out at 2.1 nM.

For the compound `CCCCCCCCCCCC[C@@H](O)[C@H]1CC[C@H]([C@H](O)CCCCCCCCCCCCC2=C[C@H](CF)OC2=O)O1`, the concentration for half-maximal inhibition (IC50) is 2.9 nM.

As for `CCCCCCCCCCCC[C@@H](O)[C@H]1CC[C@H]([C@H](O)CCCCCCCCCCCCC2=C[C@@H](C(F)(F)F)OC2=O)O1`, the IC50 was 570 nM.

As for `CCCCCCCCCCCC[C@@H](O)[C@H]1CC[C@H]([C@H](O)CCCCCCCCCCCCC2=C[C@H](C(F)F)OC2=O)O1`, inhibition was half-maximal at 31 nM (IC50).

With `CCCCCCCCCCCC[C@@H](O)[C@H]1CC[C@H]([C@H](O)CCCCCCCCCCCCC2=C[C@@H](C)OC2=O)O1`, half-maximal inhibition (IC50) was put at 270 nM.
